Assay type in all cases: cell-based
The test system of assay [1] is Staphylococcus aureus 45 RAR 2. The assay can be described thus: microbe, parasite or virus in culture. The conditions noted are these: 45RAR2. As for the experimental part: (§1) The antimicrobial spectra of a number of compounds of the invention were tested by the following method:
(§2) Twelve petri dishes containing successive aqueous dilutions of the test compound mixed with 10 ml of sterilized Brain Heart Infusion agar (Difco 0418-01-5) are prepared. Each plate is inoculated with 1:100 (or 1:10 for slow growing strains, primarily Micrococcus and Streptococcus) dilutions of up to 32 different microorganisms, using a Steers replicator block The inoculated plates are incubated at 35°-37° C. for 20-24 hours. In addition, a control plate, using BHI agar containing no test compound, is prepared and incubated at the beginning and end of each test.
(§3) An additional plate containing a compound having known susceptibility patterns for the organisms being tested and belonging to the same antibiotic class as the test compound is also prepared and incubated as a further control, as well as to provide test-to-test comparability. Erythromycin A was used for this purpose.
(§4) After incubation, each disk is read. The MIC is defined as the lowest concentration of drug yielding no growth, a slight haze, or sparsely isolated colonies on the inoculum spot as compared to the growth control.

The subject of assay [2] is Staphylococcus epidermidis 3519. The assay can be described thus: In vitro antibacterial activity, agar dilution MIC. To be noted: S. epidermidis 3519, Brain Heart Infusion agar, 20-24 hours, read-out: MIC. How it is done:
as §1, §2, §3, §4

The subject of the next assay is Staphylococcus aureus 45. In words: In vitro antibacterial activity, agar dilution MIC. To be noted: S. aureus 45, Brain Heart Infusion agar, 20-24 hours, read-out: MIC. How it is done: as §1, §2, §3, §4
Assay [3] relates to Staphylococcus aureus A5177. The assay can be described thus: In vitro antibacterial activity, agar dilution MIC. The conditions noted are these: S. aureus A5177, Brain Heart Infusion agar, 20-24 hours, read-out: MIC. How it is done: as §1, §2, §3, §4
Another assay has as its system Escherichia coli SS. In words: In vitro antibacterial activity, agar dilution MIC. The conditions noted are these: read-out: MIC. How it is done:
as §1, §2, §3, §4

Assay [4] has as its system Staphylococcus aureus CMX 553. The assay can be described thus: In vitro antibacterial activity, agar dilution MIC. As for the experimental part: as §1, §2, §3, §4
Assay [5] relates to Staphylococcus aureus CMX 686B. The assay can be described thus: In vitro antibacterial activity, agar dilution MIC. The conditions noted are these: CMX686B. How it is done: as §1, §2, §3, §4
The subject of assay [6] is Micrococcus luteus ATCC 4698. In words: In vitro antibacterial activity, agar dilution MIC. To be noted: ATCC4698, M. luteus ATCC 4698, Brain Heart Infusion agar, 20-24 hours, read-out: MIC. As for the experimental part: as §1, §2, §3, §4
Assay [7] relates to Streptococcus pyogenes EES61. The assay can be described thus: In vitro antibacterial activity, agar dilution MIC. The conditions noted are these: S. pyogenes EES61, Brain Heart Infusion agar, 20-24 hours, read-out: MIC. How it is done:
as §1, §2, §3, §4

The test system of the next assay is Escherichia coli Juhl. The assay can be described thus: In vitro antibacterial activity, agar dilution MIC. As for the experimental part: as §1, §2, §3, §4
In assay [8] the test system is Staphylococcus aureus CMX 503A. The assay can be described thus: In vitro antibacterial activity, agar dilution MIC. To be noted: CMX503A. As for the experimental part: as §1, §2, §3, §4
The subject of the next assay is Escherichia coli DC-2. The assay can be described thus: In vitro antibacterial activity, agar dilution MIC. As for the experimental part:
as §1, §2, §3, §4

In assay [9] the test system is Micrococcus luteus ATCC 9341. In words: In vitro antibacterial activity, agar dilution MIC. As for the experimental part:
as §1, §2, §3, §4

For assay [10], the system named is Streptococcus pyogenes 930 CONST. In words: In vitro antibacterial activity, agar dilution MIC. As for the experimental part: as §1, §2, §3, §4
A further assay concerns Escherichia coli H560. The assay can be described thus: In vitro antibacterial activity, agar dilution MIC. How it is done:
as §1, §2, §3, §4

The subject of assay [11] is Enterococcus faecium ATCC 8043. The assay can be described thus: In vitro antibacterial activity, agar dilution MIC. How it is done:
as §1, §2, §3, §4

The subject of assay [12] is Streptococcus pyogenes 2548 INDUC. In words: In vitro antibacterial activity, agar dilution MIC. To be noted: S. pyogenes 2548 INDUC, Brain Heart Infusion agar, 20-24 hours, read-out: MIC. How it is done:
as §1, §2, §3, §4

Assay [13] relates to Staphylococcus aureus ATCC 6538P. In words: In vitro antibacterial activity, agar dilution MIC. To be noted: ATCC6538P, S. aureus ATCC 6538P, Brain Heart Infusion agar, 35-37° C., 20-24 hours, read-out: MIC. As for the experimental part:
as §1, §2, §3, §4

Assay [14] relates to Streptococcus agalactiae CMX 508. In words: In vitro antibacterial activity, agar dilution MIC. As for the experimental part: as §1, §2, §3, §4
In assay [15] the test system is Streptococcus bovis A5169. In words: In vitro antibacterial activity, agar dilution MIC. The conditions noted are these: read-out: MIC. As for the experimental part: as §1, §2, §3, §4
The test system of assay [16] is Staphylococcus aureus 642A. In words: In vitro antibacterial activity, agar dilution MIC. The conditions noted are these: S. aureus 642A, Brain Heart Infusion agar, 20-24 hours, read-out: MIC. As for the experimental part:
as §1, §2, §3, §4

Assay [17] concerns Staphylococcus aureus NCTC 10649. The assay can be described thus: In vitro antibacterial activity, agar dilution MIC. To be noted: NCTC10649, S. aureus NCTC 10649, Brain Heart Infusion agar, 20-24 hours, read-out: MIC. How it is done:
as §1, §2, §3, §4

[18] abbreviates: E. coli SS, Brain Heart Infusion agar, 20-24 hours.
The mark [19] stands for this setting: CMX553, S. aureus CMX 553, Brain Heart Infusion agar, 20-24 hours, read-out: MIC.
The mark [20] stands for this setting: S. aureus CMX 686B, Brain Heart Infusion agar, 20-24 hours, read-out: MIC.
Setting [21] is: E. coli Juhl, Brain Heart Infusion agar, 20-24 hours, read-out: MIC.
Setting [22] is: S. aureus CMX 503A, Brain Heart Infusion agar, 20-24 hours, read-out: MIC.
Where [23] appears, read: DC2, E. coli DC-2, Brain Heart Infusion agar, 20-24 hours, read-out: MIC.
The mark [24] stands for this setting: ATCC8043, E. faecium ATCC 8043, Brain Heart Infusion agar, 20-24 hours, read-out: MIC.
[25] abbreviates: S. bovis A5169, Brain Heart Infusion agar, 20-24 hours.
Setting [26] is: ATCC9341, M. luteus ATCC 9341, Brain Heart Infusion agar, 20-24 hours, read-out: MIC.
Where [27] appears, read: E. coli H560, Brain Heart Infusion agar, 20-24 hours, read-out: MIC.
The mark [28] stands for this setting: CMX508, S. agalactiae CMX 508, Brain Heart Infusion agar, 20-24 hours, read-out: MIC.

The structures appear in SMILES notation. ≈ marks a conversion by molar mass, not a printed value. Where two headings read alike, the source gives them in different places.

Take `CC[C@H]1OC(=O)[C@H](C)[C@@H](O[C@H]2C[C@@](C)(OC)[C@@H](O)[C@H](C)O2)[C@H](C)[C@@H](O[C@@H]2O[C@H](C)C[C@H](N(C)C)[C@H]2O)[C@](C)(O)C[C@@H](C)[C@@H](N2CCN(C(=O)OCc3ccccc3)CC2)[C@H](C)[C@@H](O)[C@]1(C)O` [Example 18]: the MIC in [1] worked out at 1.56 µg/mL (≈ 1.66 µM); in assay [2], 0.78 µg/mL (≈ 0.831 µM); in the assay with Staphylococcus aureus 45, 0.78 µg/mL (≈ 0.831 µM); in [3], 12.5 µg/mL (≈ 13.3 µM); in the assay with Escherichia coli SS (setting [18]), 3.1 µg/mL (≈ 3.3 µM); in [4] (setting [19]) it was 0.78 µg/mL (≈ 0.831 µM). Also, the MIC in assay [5] (setting [20]) is 0.78 µg/mL (≈ 0.831 µM); in [6], 0.78 µg/mL (≈ 0.831 µM); in assay [7], 0.1 µg/mL (≈ 0.107 µM); in the assay with Escherichia coli Juhl (setting [21]) it was more than 100 µg/mL; in assay [8] (setting [22]) it was 0.78 µg/mL (≈ 0.831 µM); with Escherichia coli DC-2 (setting [23]), more than 100 µg/mL. Further, the MIC in [9] (ATCC9341) was 0.1 µg/mL (≈ 0.107 µM); in assay [10] (S. pyogenes 930 CONST, Brain Heart Infusion agar, 20-24 hours, read-out: MIC), 50 µg/mL (≈ 53.3 µM); in the assay on Escherichia coli H560 (H560), 50 µg/mL (≈ 53.3 µM); in assay [11] (setting [24]) it was 0.39 µg/mL (≈ 0.416 µM); in assay [12] it was 12.5 µg/mL (≈ 13.3 µM); in [13], 0.78 µg/mL (≈ 0.831 µM). Moreover, the MIC in assay [14] (CMX508, read-out: MIC) was 0.2 µg/mL (≈ 0.213 µM); in assay [15] (setting [25]), 0.05 µg/mL (≈ 0.0533 µM).
With `CC[C@H]1OC(=O)[C@H](C)[C@@H](O[C@H]2C[C@@](C)(OC)[C@@H](O)[C@H](C)O2)[C@H](C)[C@@H](O[C@@H]2O[C@H](C)C[C@H](N(C)C)[C@H]2O)[C@](C)(O)C[C@@H](C)[C@@H](N2CCNCC2)[C@H](C)[C@@H](O)[C@]1(C)O` [Example 15], the MIC in assay [1] was 12.5 µg/mL (≈ 15.5 µM); in assay [2] it was 6.2 µg/mL (≈ 7.71 µM); in the assay on Staphylococcus aureus 45, 12.5 µg/mL (≈ 15.5 µM); in assay [3], more than 100 µg/mL; in the assay on Escherichia coli SS (setting [18]), 1.56 µg/mL (≈ 1.94 µM); in [4] (CMX553), 6.2 µg/mL (≈ 7.71 µM). The MIC is 6.2 µg/mL (≈ 7.71 µM) in assay [5]; 12.5 µg/mL (≈ 15.5 µM) in [6]; 1.56 µg/mL (≈ 1.94 µM) in assay [7]; more than 100 µg/mL with Escherichia coli Juhl (setting [21]); 6.2 µg/mL (≈ 7.71 µM) in assay [8]; more than 100 µg/mL in the assay with Escherichia coli DC-2 (setting [23]). Moreover, the MIC in assay [9] (setting [26]) is 3.1 µg/mL (≈ 3.86 µM); in assay [10] (930CONST) it was more than 100 µg/mL; in the assay with Escherichia coli H560 (setting [27]), 100 µg/mL (≈ 124 µM); in assay [11] (setting [24]), 12.5 µg/mL (≈ 15.5 µM); in assay [12] it was 100 µg/mL (≈ 124 µM); in assay [13], 3.1 µg/mL (≈ 3.86 µM). In addition, the MIC in [14] (setting [28]) and in [15] (setting [25]) was 1.56 µg/mL (≈ 1.94 µM) throughout.
As to `CC[C@H]1OC(=O)[C@H](C)[C@@H](O[C@H]2C[C@@](C)(OC)[C@H](N)[C@H](C)O2)[C@H](C)[C@@H](O[C@@H]2O[C@H](C)C[C@H](N(C)C)[C@H]2O)[C@](C)(O)C[C@@H](C)[C@@H](N2CCCCC2)[C@H](C)[C@@H](O)[C@]1(C)O` [Example 32], the MIC in [1] came to 1.56 µg/mL (≈ 1.94 µM); in assay [2] it was 0.78 µg/mL (≈ 0.972 µM); in the assay on Staphylococcus aureus 45 it was 0.78 µg/mL (≈ 0.972 µM); in assay [3], 6.2 µg/mL (≈ 7.73 µM); with Escherichia coli SS it was 0.2 µg/mL (≈ 0.249 µM); in [4] (setting [19]) it was 0.78 µg/mL (≈ 0.972 µM). The MIC stood at 1.56 µg/mL (≈ 1.94 µM) in assay [16]; 0.78 µg/mL (≈ 0.972 µM) in assay [5] (setting [20]); 0.78 µg/mL (≈ 0.972 µM) in assay [6]; 1.56 µg/mL (≈ 1.94 µM) in [17]; 0.1 µg/mL (≈ 0.125 µM) in assay [7]; 25 µg/mL (≈ 31.2 µM) in the assay on Escherichia coli Juhl. Also, the MIC in assay [8] (setting [22]) was 0.39 µg/mL (≈ 0.486 µM); in the assay with Escherichia coli DC-2 (DC2), 12.5 µg/mL (≈ 15.6 µM); in assay [9] (setting [26]) it was 0.05 µg/mL (≈ 0.0623 µM); in assay [10] (930CONST), more than 100 µg/mL; in the assay with Escherichia coli H560 (setting [27]), 3.1 µg/mL (≈ 3.86 µM); in assay [11] (ATCC8043, read-out: MIC), 0.2 µg/mL (≈ 0.249 µM). For the same compound, the MIC in [12] turned out to be 6.2 µg/mL (≈ 7.73 µM); in assay [13], 0.78 µg/mL (≈ 0.972 µM); in assay [14] (setting [28]), 0.1 µg/mL (≈ 0.125 µM); in assay [15] it was 0.02 µg/mL (≈ 0.0249 µM).

The values are drawn from patent US5075289A, “9-R-azacyclic erythromycin antibiotics” (priority 1988, dated 1991).
